The record followed here is ChEMBL document CHEMBL4340502, “Anti-biofilm and anti-adherence properties of novel cyclic dipeptides against oral pathogens” (Bioorg Med Chem, 2019).

Structures are written as SMILES. Activity calls are given as the source filed them. The rule behind the calls is not given here.

For one data set, the system named is Fusobacterium nucleatum. Kind of data set: Antibiofilm activity against Fusobacterium nucleatum ATCC 25586 assessed as inhibition of biofilm formation up to 96 ug/mL after 24 hrs by crystal violet staining based assay. The class given is functional, organism-based.
For the molecule `C[C@@H]1NC(=O)[C@H](Cc2ccccc2)NC1=O`, the inhibition result was “inactive”.
The same measure, in the same setting: in the case of `CC(C)C[C@@H]1NC(=O)[C@@H](Cc2ccc(OCc3ccccc3)cc2)NC1=O` it was “inactive”; in that of `CC(C)C[C@H]1NC(=O)[C@@H](Cc2ccccc2)NC1=O`, “inactive”; in that of `CC(C)C[C@@H]1NC(=O)[C@H](Cc2ccccc2)NC1=O`, “inactive”.
Still for that read-out and setting: the same measure for `C[C@H]1NC(=O)[C@@H](Cc2ccccc2)NC1=O`: “inactive”; for `CC(C)C[C@@H]1NC(=O)[C@H](C)NC1=O`: “inactive”; for `C[C@@H]1NC(=O)[C@H](CCC(N)=O)NC1=O`: “inactive”.
On to `O=C1N[C@@H](COCc2ccccc2)C(=O)N[C@H]1COCc1ccccc1`, for which the inhibition result is “inactive”.
Take `CC(C)C[C@H]1NC(=O)[C@H](Cc2ccccc2)NC1=O`: the inhibition entry was “inactive”.
The same measure, in the same setting: the same measure for `O=C1N[C@H](Cc2ccccc2)C(=O)N[C@@H]1COCc1ccccc1`: “inactive”; for `O=C1[C@@H]2CSCN2C(=O)[C@@H]2CSCN12`: “inactive”; for `CC(C)C[C@H]1NC(=O)[C@@H](Cc2ccc(OCc3ccccc3)cc2)NC1=O`: “inactive”.
The same measure, in the same setting: the same measure for `CC(C)[C@@H]1NC(=O)[C@H](Cc2ccccc2)NC1=O`: “inactive”; for `CC(C)[C@H]1NC(=O)[C@@H](C(C)C)NC1=O`: “inactive”.
The same measure, in the same setting: the same measure for `O=C(NCCCC[C@@H]1NC(=O)[C@H](CCCCNC(=O)OCc2ccccc2)NC1=O)OCc1ccccc1`: “inactive”; for `CC(C)[C@@H]1NC(=O)[C@H](C)NC1=O`: “inactive”.
Regarding `CC(C)C[C@@H]1NC(=O)[C@H](C(C)C)NC1=O`, the inhibition result was “inactive”.
`CC(C)C[C@H]1NC(=O)[C@@H](C(C)C)NC1=O`: the inhibition result is “inactive”.
On to `CCC(C)[C@@H]1NC(=O)[C@H](Cc2ccccc2)NC1=O` (stereo partly specified), for which the inhibition result is “inactive”.

The next data set has as its system Porphyromonas gingivalis. The data set is described as follows: Antibiofilm activity against Porphyromonas gingivalis ATCC 33277 assessed as inhibition of biofilm formation up to 96 ug/mL after 24 hrs by crystal violet staining based assay. It is filed as functional, organism-based.
Consider `C[C@@H]1NC(=O)[C@H](Cc2ccccc2)NC1=O`, for which the inhibition entry is “inactive”.
Consider `CC(C)C[C@@H]1NC(=O)[C@@H](Cc2ccc(OCc3ccccc3)cc2)NC1=O`, for which the inhibition result is “inactive”.
With `CC(C)C[C@H]1NC(=O)[C@@H](Cc2ccccc2)NC1=O`, the inhibition entry is “inactive”.
As to `CC(C)C[C@@H]1NC(=O)[C@H](Cc2ccccc2)NC1=O`, the inhibition result is “inactive”.
The same measure, in the same setting: the same measure for `C[C@H]1NC(=O)[C@@H](Cc2ccccc2)NC1=O`: “inactive”.
On the same count and under the same terms, in the case of `CC(C)C[C@@H]1NC(=O)[C@H](C)NC1=O` it was “inactive”; in that of `C[C@@H]1NC(=O)[C@H](CCC(N)=O)NC1=O`, “inactive”; in that of `O=C1N[C@@H](COCc2ccccc2)C(=O)N[C@H]1COCc1ccccc1`, “inactive”.
With `CC(C)C[C@H]1NC(=O)[C@H](Cc2ccccc2)NC1=O`, the inhibition result was “inactive”.
On to `O=C1N[C@H](Cc2ccccc2)C(=O)N[C@@H]1COCc1ccccc1`, for which the inhibition result was “inactive”.
The same measure, in the same setting: the same measure for `O=C1[C@@H]2CSCN2C(=O)[C@@H]2CSCN12`: “inactive”.
Regarding `CC(C)C[C@H]1NC(=O)[C@@H](Cc2ccc(OCc3ccccc3)cc2)NC1=O`, the inhibition entry is “inactive”.
The same measure, in the same setting: the same measure for `CC(C)[C@@H]1NC(=O)[C@H](Cc2ccccc2)NC1=O`: “inactive”.
Regarding `CC(C)[C@H]1NC(=O)[C@@H](C(C)C)NC1=O`, the inhibition result was “inactive”.
For the molecule `O=C(NCCCC[C@@H]1NC(=O)[C@H](CCCCNC(=O)OCc2ccccc2)NC1=O)OCc1ccccc1`, the inhibition entry was “inactive”.
Regarding `CC(C)[C@@H]1NC(=O)[C@H](C)NC1=O`, the inhibition entry was “inactive”.
Turning to `CC(C)C[C@@H]1NC(=O)[C@H](C(C)C)NC1=O`, the inhibition entry was “inactive”.
As for `CC(C)C[C@H]1NC(=O)[C@@H](C(C)C)NC1=O`, the inhibition entry was “inactive”.
`CCC(C)[C@@H]1NC(=O)[C@H](Cc2ccccc2)NC1=O` (stereo partly specified): the inhibition result was “inactive”.

In a further data set the test system is Streptococcus mutans. The data set is described as follows: Antibiofilm activity against Streptococcus mutans ATCC 25175 assessed as inhibition of biofilm formation up to 96 ug/mL after 24 hrs by crystal violet staining-based assay. It is filed as functional, organism-based.
For the molecule `C[C@@H]1NC(=O)[C@H](Cc2ccccc2)NC1=O`, the inhibition entry is “inactive”.
For the molecule `CC(C)C[C@@H]1NC(=O)[C@@H](Cc2ccc(OCc3ccccc3)cc2)NC1=O`, the inhibition entry was “inactive”.
As to `CC(C)C[C@H]1NC(=O)[C@@H](Cc2ccccc2)NC1=O`, the inhibition result is “inactive”.
As to `CC(C)C[C@@H]1NC(=O)[C@H](Cc2ccccc2)NC1=O`, the inhibition result was “inactive”.
The same measure, in the same setting: the same measure for `C[C@H]1NC(=O)[C@@H](Cc2ccccc2)NC1=O`: “inactive”; for `CC(C)C[C@@H]1NC(=O)[C@H](C)NC1=O`: “inactive”.
Still for that read-out and setting: in the case of `C[C@@H]1NC(=O)[C@H](CCC(N)=O)NC1=O` it was “inactive”; in that of `O=C1N[C@@H](COCc2ccccc2)C(=O)N[C@H]1COCc1ccccc1`, “inactive”; in that of `CC(C)C[C@H]1NC(=O)[C@H](Cc2ccccc2)NC1=O`, “inactive”.
Turning to `O=C1N[C@H](Cc2ccccc2)C(=O)N[C@@H]1COCc1ccccc1`, the inhibition entry is “inactive”.
Regarding `O=C1[C@@H]2CSCN2C(=O)[C@@H]2CSCN12`, the inhibition entry is “inactive”.
With `CC(C)C[C@H]1NC(=O)[C@@H](Cc2ccc(OCc3ccccc3)cc2)NC1=O`, the inhibition entry is “inactive”.
As to `CC(C)[C@@H]1NC(=O)[C@H](Cc2ccccc2)NC1=O`, the inhibition entry was “inactive”.
On to `CC(C)[C@H]1NC(=O)[C@@H](C(C)C)NC1=O`, for which the inhibition result was “inactive”.
Turning to `O=C(NCCCC[C@@H]1NC(=O)[C@H](CCCCNC(=O)OCc2ccccc2)NC1=O)OCc1ccccc1`, the inhibition entry is “inactive”.
Consider `CC(C)[C@@H]1NC(=O)[C@H](C)NC1=O`, for which the inhibition entry is “inactive”.
With `CC(C)C[C@@H]1NC(=O)[C@H](C(C)C)NC1=O`, the inhibition entry is “inactive”.
Regarding `CC(C)C[C@H]1NC(=O)[C@@H](C(C)C)NC1=O`, the inhibition result was “inactive”.
As to `CCC(C)[C@@H]1NC(=O)[C@H](Cc2ccccc2)NC1=O` (stereo partly specified), the inhibition result is “inactive”.

A further data set relates to Streptococcus mutans. The data set is described as follows: Inhibition of planktonic growth of Streptococcus mutans ATCC 25175 up to 96 ug/mL after 24 hrs relative to control. It is filed as organism-based.
On to `C[C@@H]1NC(=O)[C@H](Cc2ccccc2)NC1=O`, for which the “growth inhibition (GI)” value is reported as “Non-Toxic”.
Consider `CC(C)C[C@@H]1NC(=O)[C@@H](Cc2ccc(OCc3ccccc3)cc2)NC1=O`, for which the “growth inhibition (GI)” value was “Non-Toxic”.
Still for that read-out and setting: the same measure for `CC(C)C[C@H]1NC(=O)[C@@H](Cc2ccccc2)NC1=O`: “Non-Toxic”; for `CC(C)C[C@@H]1NC(=O)[C@H](Cc2ccccc2)NC1=O`: “Non-Toxic”.
Same read-out and setting: the same measure for `C[C@H]1NC(=O)[C@@H](Cc2ccccc2)NC1=O`: “Non-Toxic”; for `CC(C)C[C@@H]1NC(=O)[C@H](C)NC1=O`: “Non-Toxic”.
In the case of `C[C@@H]1NC(=O)[C@H](CCC(N)=O)NC1=O`, the “growth inhibition (GI)” value is listed as “Non-Toxic”.
As for `O=C1N[C@@H](COCc2ccccc2)C(=O)N[C@H]1COCc1ccccc1`, the “growth inhibition (GI)” value is on record as “Non-Toxic”.
For `CC(C)C[C@H]1NC(=O)[C@H](Cc2ccccc2)NC1=O`, the “growth inhibition (GI)” value is given as “Non-Toxic”.
For `O=C1N[C@H](Cc2ccccc2)C(=O)N[C@@H]1COCc1ccccc1`, the “growth inhibition (GI)” value is given as “Non-Toxic”.
On the same count and under the same terms, the same measure for `O=C1[C@@H]2CSCN2C(=O)[C@@H]2CSCN12`: “Non-Toxic”; for `CC(C)C[C@H]1NC(=O)[C@@H](Cc2ccc(OCc3ccccc3)cc2)NC1=O`: “Non-Toxic”.
On the same count and under the same terms, in the case of `CC(C)[C@@H]1NC(=O)[C@H](Cc2ccccc2)NC1=O` it was “Non-Toxic”; in that of `CC(C)[C@H]1NC(=O)[C@@H](C(C)C)NC1=O`, “Non-Toxic”; in that of `O=C(NCCCC[C@@H]1NC(=O)[C@H](CCCCNC(=O)OCc2ccccc2)NC1=O)OCc1ccccc1`, “Non-Toxic”.
Same read-out and setting: in the case of `CC(C)[C@@H]1NC(=O)[C@H](C)NC1=O` it was “Non-Toxic”; in that of `CC(C)C[C@@H]1NC(=O)[C@H](C(C)C)NC1=O`, “Non-Toxic”.
Consider `CC(C)C[C@H]1NC(=O)[C@@H](C(C)C)NC1=O`, for which the “growth inhibition (GI)” value is “Non-Toxic”.
For `CCC(C)[C@@H]1NC(=O)[C@H](Cc2ccccc2)NC1=O` (stereo partly specified), the “growth inhibition (GI)” value was “Non-Toxic”.
